Results on two compounds are retold here after ChEMBL document CHEMBL4145663, “Sweet Binders: Carbonic Anhydrase IX in Complex with Sucralose” (ACS Med Chem Lett, 2018).

In assay [1] the target is Carbonic anhydrase 9 (Homo sapiens, UniProt Q16790). Briefly: Binding affinity to carbonic anhydrase 9 (unknown origin) expressed in Escherichia coli BL21 (DE3).
Assay [2] concerns the target Carbonic anhydrase 2 (Homo sapiens, UniProt P00918). In words: Binding affinity to carbonic anhydrase 2 (unknown origin).

For the compound `OC[C@H]1O[C@H](O[C@]2(CCl)O[C@H](CCl)[C@@H](O)[C@@H]2O)[C@H](O)[C@@H](O)[C@H]1Cl` [SUCRALOSE], the Ki was found to be 2200 nM in assay [1] and 300 nM in assay [2].

Take `OC[C@H]1O[C@@](CO)(O[C@H]2O[C@H](CO)[C@@H](O)[C@H](O)[C@H]2O)[C@@H](O)[C@@H]1O` [SUCROSE]: the Ki in assay [1] and in assay [2] was greater than 20000 nM in each case.

Broadly, the Ki is a dissociation constant, usually derived from enzyme kinetics or from competition with a known ligand.
